Experiments:
[1] = molecular target: Protein kinase C beta type (Homo sapiens, UniProt P05771); experiment: Inhibition of recombinant human PKCbeta1 assessed as [33P]-ATP incorporation into tridecapeptide substrate after 60 mins by scintillation proximity assay
[2] = molecular target: Protein kinase C alpha type (Homo sapiens, UniProt P17252); experiment: Inhibition of recombinant human PKCalpha assessed as [33P]-ATP incorporation into tridecapeptide substrate after 60 mins by scintillation proximity assay
[3] = molecular target: Protein kinase C theta type (Homo sapiens, UniProt Q04759); experiment: Inhibition of recombinant human PKCtheta assessed as [33P]-ATP incorporation into tridecapeptide substrate after 60 mins by scintillation proximity assay
Sequence of Protein kinase C theta type (Q04759 whole entry): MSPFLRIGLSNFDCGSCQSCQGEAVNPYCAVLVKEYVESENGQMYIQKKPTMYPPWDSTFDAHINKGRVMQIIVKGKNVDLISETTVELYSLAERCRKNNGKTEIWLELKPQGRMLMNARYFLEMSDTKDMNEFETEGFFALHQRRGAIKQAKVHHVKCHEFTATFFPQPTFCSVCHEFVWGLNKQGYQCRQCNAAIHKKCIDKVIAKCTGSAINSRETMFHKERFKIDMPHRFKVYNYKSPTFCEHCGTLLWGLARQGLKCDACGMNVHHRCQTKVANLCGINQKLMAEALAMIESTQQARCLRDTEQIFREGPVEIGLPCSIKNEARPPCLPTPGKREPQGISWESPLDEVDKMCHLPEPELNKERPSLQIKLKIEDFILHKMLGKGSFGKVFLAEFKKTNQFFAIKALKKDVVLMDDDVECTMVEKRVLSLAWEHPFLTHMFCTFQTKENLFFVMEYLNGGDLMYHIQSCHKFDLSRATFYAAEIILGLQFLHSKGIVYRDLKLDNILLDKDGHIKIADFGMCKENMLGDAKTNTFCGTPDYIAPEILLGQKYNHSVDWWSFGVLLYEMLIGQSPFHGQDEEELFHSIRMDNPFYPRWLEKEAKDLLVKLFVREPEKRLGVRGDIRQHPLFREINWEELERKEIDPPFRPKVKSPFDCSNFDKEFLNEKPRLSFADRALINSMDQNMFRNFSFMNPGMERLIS

[4] = molecular target: Protein kinase C eta type (Homo sapiens, UniProt P24723); experiment: Inhibition of recombinant human PKCeta assessed as [33P]-ATP incorporation into tridecapeptide substrate after 60 mins by scintillation proximity assay
Sequence of Protein kinase C eta type (P24723 whole entry): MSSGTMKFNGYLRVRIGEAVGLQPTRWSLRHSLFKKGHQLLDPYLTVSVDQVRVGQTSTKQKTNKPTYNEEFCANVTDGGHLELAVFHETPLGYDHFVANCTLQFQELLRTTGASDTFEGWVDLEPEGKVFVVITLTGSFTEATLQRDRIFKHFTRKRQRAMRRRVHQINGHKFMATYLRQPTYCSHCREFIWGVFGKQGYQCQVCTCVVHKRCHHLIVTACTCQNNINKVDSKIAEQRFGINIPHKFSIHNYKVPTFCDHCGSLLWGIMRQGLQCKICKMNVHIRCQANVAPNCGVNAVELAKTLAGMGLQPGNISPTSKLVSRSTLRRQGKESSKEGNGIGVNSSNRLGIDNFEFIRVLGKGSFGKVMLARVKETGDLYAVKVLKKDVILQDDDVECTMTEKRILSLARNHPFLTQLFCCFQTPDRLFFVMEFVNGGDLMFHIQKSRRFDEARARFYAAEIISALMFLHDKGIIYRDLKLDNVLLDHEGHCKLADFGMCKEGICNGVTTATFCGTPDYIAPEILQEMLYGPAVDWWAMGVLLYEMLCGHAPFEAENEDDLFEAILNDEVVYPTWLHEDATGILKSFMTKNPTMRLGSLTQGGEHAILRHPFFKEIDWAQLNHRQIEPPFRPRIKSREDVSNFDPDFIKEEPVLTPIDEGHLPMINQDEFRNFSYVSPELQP

[5] = molecular target: T1, Protein kinase C epsilon type (Homo sapiens, UniProt Q02156); experiment: Inhibition of recombinant human PKCepsilon assessed as [33P]-ATP incorporation into tridecapeptide substrate after 60 mins by scintillation proximity assay
T1 sequence (Q02156 whole entry): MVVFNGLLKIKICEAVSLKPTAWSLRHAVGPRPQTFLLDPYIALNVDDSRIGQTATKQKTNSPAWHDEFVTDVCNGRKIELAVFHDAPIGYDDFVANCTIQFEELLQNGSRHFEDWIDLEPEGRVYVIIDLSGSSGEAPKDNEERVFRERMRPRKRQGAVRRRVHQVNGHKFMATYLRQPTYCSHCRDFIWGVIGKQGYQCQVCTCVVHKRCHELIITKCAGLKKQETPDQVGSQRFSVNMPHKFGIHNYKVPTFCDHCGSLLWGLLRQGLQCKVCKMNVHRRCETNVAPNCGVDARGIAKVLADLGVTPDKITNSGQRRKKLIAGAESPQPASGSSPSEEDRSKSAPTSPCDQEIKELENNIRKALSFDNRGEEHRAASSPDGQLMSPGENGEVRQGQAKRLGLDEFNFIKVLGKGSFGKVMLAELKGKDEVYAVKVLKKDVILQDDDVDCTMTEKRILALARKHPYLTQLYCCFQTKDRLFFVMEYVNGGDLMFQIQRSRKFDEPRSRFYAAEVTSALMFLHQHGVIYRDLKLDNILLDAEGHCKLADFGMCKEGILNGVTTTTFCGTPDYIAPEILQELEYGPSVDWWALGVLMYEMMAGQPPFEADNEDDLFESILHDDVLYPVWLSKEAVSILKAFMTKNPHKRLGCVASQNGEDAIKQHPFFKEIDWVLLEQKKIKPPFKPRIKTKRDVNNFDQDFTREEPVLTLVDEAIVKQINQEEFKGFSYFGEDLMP

[6] = molecular target: Protein kinase C delta type (Homo sapiens, UniProt Q05655); experiment: Inhibition of recombinant human PKCdelta assessed as [33P]-ATP incorporation into tridecapeptide substrate after 60 mins by scintillation proximity assay
Sequence of Protein kinase C delta type (Q05655 whole entry): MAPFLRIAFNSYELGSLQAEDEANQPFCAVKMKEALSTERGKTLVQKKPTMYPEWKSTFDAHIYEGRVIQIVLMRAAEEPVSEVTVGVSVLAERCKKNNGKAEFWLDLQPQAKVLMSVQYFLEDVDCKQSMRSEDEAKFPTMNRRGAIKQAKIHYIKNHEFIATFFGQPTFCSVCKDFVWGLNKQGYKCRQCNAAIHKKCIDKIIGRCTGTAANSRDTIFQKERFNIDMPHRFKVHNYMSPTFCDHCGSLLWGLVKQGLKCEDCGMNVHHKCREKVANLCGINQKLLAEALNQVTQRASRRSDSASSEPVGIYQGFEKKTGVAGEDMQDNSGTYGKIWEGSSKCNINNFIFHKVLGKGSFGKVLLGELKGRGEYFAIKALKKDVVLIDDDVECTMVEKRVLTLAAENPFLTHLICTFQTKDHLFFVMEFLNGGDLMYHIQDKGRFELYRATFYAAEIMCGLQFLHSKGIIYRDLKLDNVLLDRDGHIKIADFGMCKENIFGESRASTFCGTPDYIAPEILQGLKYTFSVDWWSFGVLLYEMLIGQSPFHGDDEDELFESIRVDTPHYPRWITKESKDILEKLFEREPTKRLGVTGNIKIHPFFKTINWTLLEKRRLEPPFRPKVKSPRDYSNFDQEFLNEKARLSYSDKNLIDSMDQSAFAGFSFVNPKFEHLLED

[7] = Inhibition of antiCD3 and antiCD28 antibody-stimulated rat blood T lymphocyte proliferation incubated 1 hr before antibody challenge measured after 52 hrs by radioactive [3H]-thymidine incorporation assay; type: tissue-based; conditions: T-cell
[8] = Tmax in Lewis rat at 10 mg/kg, po; type: ADME, organism-based; design: dose 10 mg/kg, route oral; conditions: in vivo
Mus musculus [9] = species on record: Mus musculus; experiment: animal or person; type: functional; conditions: BALB/c, route oral
[10] = Cmax in Lewis rat at 10 mg/kg, po; type: ADME, organism-based; design: dose 10 mg/kg, route oral; conditions: in vivo
Mus musculus [11] = species on record: Mus musculus; experiment: animal or person; type: functional; conditions: BALB/c, route oral; remark: listed apart in the source
[12] = Octanol-water distribution coefficient, log D of the compound at pH 6.8; type: physicochemical
[13] = Oral bioavailability in Lewis rat at 10 mg/kg; type: ADME, organism-based; conditions: in vivo
[14] = AUC (infinity) in Lewis rat at 5 mg/kg, iv; type: ADME, organism-based; design: dose 5 mg/kg, route intravenous, time infinity; conditions: plasma
[15] = Intrinsic aqueous solubility of the compound; type: physicochemical; conditions: read-out: Intrinsic_solubility
[16] = Plasma protein binding in rat by rapid equilibrium dialysis method; type: ADME, cell-free; conditions: read-out: PPB (converted)
[17] = AUC (infinity) in Lewis rat at 10 mg/kg, po; type: ADME, organism-based; design: time infinity, dose 10 mg/kg, route oral; conditions: plasma
[18] = Volume of distribution at steady state in Lewis rat at 5 mg/kg, iv; type: ADME, organism-based; design: dose 5 mg/kg, route intravenous; conditions: in vivo, read-out: Vdss
[19] = Plasma protein binding in human by rapid equilibrium dialysis method; type: ADME, cell-free; conditions: read-out: PPB (converted)
[20] = Lipophilicity, log P of the compound; type: physicochemical; conditions: octanol/water
[21] = Clearance in Lewis rat at 5 mg/kg, iv; type: ADME, organism-based; design: dose 5 mg/kg, route intravenous; conditions: in vivo
[22] = Dissociation constant, pKa of the compound; type: physicochemical
[23] = Elimination half life in Lewis rat at 5 mg/kg, iv; type: ADME, organism-based; design: dose 5 mg/kg, route intravenous; conditions: in vivo, read-out: beta t1/2 (converted)

Sequence of Protein kinase C beta type (P05771 whole entry): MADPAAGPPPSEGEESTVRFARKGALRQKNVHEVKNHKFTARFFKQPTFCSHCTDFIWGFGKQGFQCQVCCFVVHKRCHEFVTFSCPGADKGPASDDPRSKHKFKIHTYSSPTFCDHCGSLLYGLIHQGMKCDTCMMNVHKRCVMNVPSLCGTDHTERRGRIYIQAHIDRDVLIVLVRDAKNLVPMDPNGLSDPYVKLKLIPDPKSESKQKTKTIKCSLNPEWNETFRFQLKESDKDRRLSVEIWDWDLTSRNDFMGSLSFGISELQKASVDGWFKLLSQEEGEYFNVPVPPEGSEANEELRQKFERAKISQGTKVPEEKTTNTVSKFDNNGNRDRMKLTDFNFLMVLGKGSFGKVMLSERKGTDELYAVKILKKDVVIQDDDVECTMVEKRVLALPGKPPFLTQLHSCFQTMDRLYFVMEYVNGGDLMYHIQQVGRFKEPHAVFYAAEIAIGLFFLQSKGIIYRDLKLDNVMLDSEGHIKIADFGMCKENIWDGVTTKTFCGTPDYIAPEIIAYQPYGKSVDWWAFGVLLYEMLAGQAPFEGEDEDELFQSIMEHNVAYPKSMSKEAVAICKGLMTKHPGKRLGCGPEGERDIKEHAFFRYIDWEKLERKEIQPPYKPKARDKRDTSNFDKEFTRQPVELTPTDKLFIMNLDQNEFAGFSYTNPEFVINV

## NCCNc1nc(-c2ccncc2)cc2cnccc12
[1]
  IC50: 859 nM

## c1cc(-c2cc3cnccc3c(N3CCNCC3)n2)ccn1
[2]
  IC50: > 1000 nM
[1]
  IC50: 823 nM
[3]
  IC50: 109 nM
[4]
  IC50: 6 nM
[5]
  IC50: 8 nM

## NCCNc1nc(-c2ccncc2)cc2ccccc12
[2]
  IC50: > 1000 nM
[1]
  IC50: > 1000 nM
[3]
  IC50: > 1000 nM
[4]
  IC50: 743 nM
[5]
  IC50: 877 nM
[6]
  IC50: > 1000 nM

## NCCNc1nc(-c2ccncc2)cc2ncccc12
[2]
  IC50: > 1000 nM
[1]
  IC50: > 1000 nM
[3]
  IC50: > 1000 nM
[4]
  IC50: 401 nM
[5]
  IC50: 929 nM
[6]
  IC50: > 1000 nM

## NCCNc1nc(-c2ccncc2)cc2ccncc12
[2]
  IC50: > 1000 nM
[1]
  IC50: > 1000 nM
[3]
  IC50: > 1000 nM
[4]
  IC50: > 1000 nM
[5]
  IC50: > 1000 nM
[6]
  IC50: > 1000 nM

## NCCNc1cc(-c2ccncc2)cc2cnccc12
[2]
  IC50: > 1000 nM
[1]
  IC50: > 1000 nM
[3]
  IC50: 355 nM
[4]
  IC50: 54 nM
[5]
  IC50: 44 nM
[7]
  IC50: 1040 nM
[6]
  IC50: 157 nM

## NCCNc1nc(-c2ccncc2)nc2cnccc12
[2]
  IC50: > 1000 nM
[1]
  IC50: > 1000 nM
[3]
  IC50: > 1000 nM
[4]
  IC50: 27 nM
[5]
  IC50: 38 nM
[6]
  IC50: 102 nM

## NCCOc1nc(-c2ccncc2)cc2cnccc12
[2]
  IC50: > 1000 nM
[1]
  IC50: > 1000 nM
[3]
  IC50: 948 nM
[4]
  IC50: 82 nM
[5]
  IC50: 120 nM
[6]
  IC50: 703 nM

## C[C@H](N)CNc1nc(-c2ccncc2)cc2cnccc12
[8]
  Tmax: 2 h
[2]
  IC50: 829 nM
Mus musculus [9]
  inhibition in vivo at 100 mg/kg: 70%
[10]
  Cmax: 53 ng/mL
[1]
  IC50: 378 nM
[3]
  IC50: 55 nM
Mus musculus [11]
  inhibition in vivo at 50 mg/kg: 37%
[12]
  logD: -0.3
[13]
  bioavailability: 20%
[14]
  AUC(0-inf): 1770 ng·h/mL
[4]
  IC50: 2 nM
[5]
  IC50: 5 nM
[15]
  solubility: > 400 µg/mL
[16]
  fraction unbound: 0.37
[17]
  AUC(0-inf): 712 ng·h/mL
[18]
  Vd: 14 L/kg
[7]
  IC50: 138 nM
[19]
  fraction unbound: 0.42
[6]
  IC50: 8 nM
[20]
  logP: 2.2
[21]
  clearance: 49 mL/min/kg
[22]
  pKa: 9
[23]
  half-life: 8.1 h

## NC(CNc1nc(-c2ccncc2)cc2cnccc12)Cc1ccccc1 (stereo not given)
[2]
  IC50: 818 nM
[1]
  IC50: > 1000 nM
[3]
  IC50: > 1000 nM
[4]
  IC50: 452 nM
[5]
  IC50: 403 nM
[6]
  IC50: 932 nM

## CN(CCN)c1nc(-c2ccncc2)cc2cnccc12
[2]
  IC50: > 1000 nM
[1]
  IC50: > 1000 nM
[3]
  IC50: 350 nM
[4]
  IC50: 34 nM
[5]
  IC50: 24 nM
[6]
  IC50: 371 nM

## CNCCNc1nc(-c2ccncc2)cc2cnccc12
[2]
  IC50: > 1000 nM
[1]
  IC50: > 1000 nM
[3]
  IC50: 997 nM
[4]
  IC50: 93 nM
[5]
  IC50: 79 nM
[6]
  IC50: 254 nM

## c1cc(-c2cc3cnccc3c(N3CCCNCC3)n2)ccn1
[2]
  IC50: 433 nM
[1]
  IC50: 661 nM
[3]
  IC50: 77 nM
[4]
  IC50: 4 nM
[5]
  IC50: 7 nM
[6]
  IC50: 63 nM

## NC1CCCN(c2nc(-c3ccncc3)cc3cnccc23)C1 (stereo not given)
[2]
  IC50: 771 nM
[1]
  IC50: 865 nM
[3]
  IC50: 132 nM
[4]
  IC50: 13 nM
[5]
  IC50: 8 nM
[6]
  IC50: 214 nM

## NCCCNc1nc(-c2ccncc2)cc2cnccc12
[2]
  IC50: 676 nM
[1]
  IC50: 779 nM
[3]
  IC50: 97 nM
[4]
  IC50: 10 nM
[5]
  IC50: 13 nM
[6]
  IC50: 53 nM

## OCCNc1nc(-c2ccncc2)cc2cnccc12
[2]
  IC50: > 1000 nM
[1]
  IC50: > 1000 nM
[3]
  IC50: 743 nM
[4]
  IC50: 188 nM
[5]
  IC50: 81 nM
[6]
  IC50: 635 nM

## O=C1CN(c2nc(-c3ccncc3)cc3cnccc23)CCN1
[2]
  IC50: > 1000 nM
[1]
  IC50: > 1000 nM
[3]
  IC50: > 1000 nM
[4]
  IC50: 735 nM
[5]
  IC50: 802 nM
[6]
  IC50: > 1000 nM

## CC(C)(N)CNc1nc(-c2cccnc2)cc2cnccc12
[2]
  IC50: > 1000 nM
[1]
  IC50: > 1000 nM
[3]
  IC50: > 1000 nM
[4]
  IC50: > 1000 nM
[5]
  IC50: > 1000 nM
[6]
  IC50: > 1000 nM

## CC(C)(N)CNc1nc(-c2ccnc(N)c2)cc2cnccc12
[2]
  IC50: 378 nM
[1]
  IC50: > 1000 nM
[3]
  IC50: 496 nM
[4]
  IC50: 60 nM
[5]
  IC50: 147 nM
[6]
  IC50: 294 nM

## CC(C)Nc1cc(-c2cc3cnccc3c(NCC(C)(C)N)n2)ccn1
[2]
  IC50: > 1000 nM
[1]
  IC50: > 1000 nM
[3]
  IC50: > 1000 nM
[4]
  IC50: 862 nM
[5]
  IC50: > 1000 nM
[6]
  IC50: > 1000 nM

## CC(C)(N)CNc1nc(-c2ccncc2F)cc2cnccc12
[2]
  IC50: > 1000 nM
[1]
  IC50: 961 nM
[3]
  IC50: 140 nM
[4]
  IC50: 18 nM
[5]
  IC50: 62 nM
[6]
  IC50: 124 nM

## CC(C)(N)CNc1nc(-c2ccncc2Cl)cc2cnccc12
[2]
  IC50: > 1000 nM
[1]
  IC50: > 1000 nM
[3]
  IC50: 93 nM
[4]
  IC50: 15 nM
[5]
  IC50: 47 nM
[6]
  IC50: 221 nM

## Cc1cnccc1-c1cc2cnccc2c(NCC(C)(C)N)n1
[2]
  IC50: > 1000 nM
[1]
  IC50: > 1000 nM
[3]
  IC50: 738 nM
[4]
  IC50: 52 nM
[5]
  IC50: 133 nM
[6]
  IC50: 386 nM
